Results reported in publication PMC9803904, “Selective somatostatin receptor 5 inhibition improves hepatic insulin sensitivity” (Pharmacology Research & Perspectives, 2022).

Tests used:
[1] = molecular target: T1, mouse SSTR5 (somatostatin receptor 5) (Mus musculus, UniProt O08858); test: HTRF cAMP antagonist assay in CHO cells stably expressing mouse SSTR5, stimulated with SST28 and forskolin; type: cell-based
T1 sequence (O08858 1-362): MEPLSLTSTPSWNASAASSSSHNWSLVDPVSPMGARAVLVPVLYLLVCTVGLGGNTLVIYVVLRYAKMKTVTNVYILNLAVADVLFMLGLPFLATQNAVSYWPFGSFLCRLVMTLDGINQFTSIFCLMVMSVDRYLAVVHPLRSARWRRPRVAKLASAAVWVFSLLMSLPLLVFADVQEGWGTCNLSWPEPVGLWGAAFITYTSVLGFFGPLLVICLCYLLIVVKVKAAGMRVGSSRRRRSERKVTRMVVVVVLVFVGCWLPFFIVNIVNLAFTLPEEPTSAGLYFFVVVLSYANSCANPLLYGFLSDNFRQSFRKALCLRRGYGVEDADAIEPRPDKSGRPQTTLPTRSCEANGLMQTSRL

[2] = molecular target: human SSTR5 (somatostatin receptor 5) (Homo sapiens, UniProt P35346); test: HTRF cAMP antagonist assay in CHO cells stably expressing human SSTR5, stimulated with SST28 and forskolin; type: cell-based
human SSTR5 (somatostatin receptor 5), sequence (P35346 whole entry): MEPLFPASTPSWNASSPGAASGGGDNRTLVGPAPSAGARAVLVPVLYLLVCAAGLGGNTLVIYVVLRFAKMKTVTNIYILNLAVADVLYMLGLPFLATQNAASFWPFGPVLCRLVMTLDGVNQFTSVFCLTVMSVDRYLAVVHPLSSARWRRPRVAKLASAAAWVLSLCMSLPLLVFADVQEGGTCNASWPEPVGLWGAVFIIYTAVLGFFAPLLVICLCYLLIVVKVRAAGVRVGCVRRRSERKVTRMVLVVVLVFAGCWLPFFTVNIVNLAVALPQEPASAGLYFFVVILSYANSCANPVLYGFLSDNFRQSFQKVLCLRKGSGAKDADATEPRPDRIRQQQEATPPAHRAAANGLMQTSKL

- IC50 [1]: 31 nM
- IC50 [2]: 9.8 nM
SMILES: Cc1c(C(=O)O)ccn(C2CCN(Cc3cc(C4CC4)c(-c4ccc(F)cc4)c(F)c3OC(C)C)CC2)c1=O [compound-1]
